The target in assay [1] is T1, GRK2 (Homo sapiens, UniProt P25098).
T1 construct: purchased SignalChem A14-10G
T1 sequence (P25098 1-689): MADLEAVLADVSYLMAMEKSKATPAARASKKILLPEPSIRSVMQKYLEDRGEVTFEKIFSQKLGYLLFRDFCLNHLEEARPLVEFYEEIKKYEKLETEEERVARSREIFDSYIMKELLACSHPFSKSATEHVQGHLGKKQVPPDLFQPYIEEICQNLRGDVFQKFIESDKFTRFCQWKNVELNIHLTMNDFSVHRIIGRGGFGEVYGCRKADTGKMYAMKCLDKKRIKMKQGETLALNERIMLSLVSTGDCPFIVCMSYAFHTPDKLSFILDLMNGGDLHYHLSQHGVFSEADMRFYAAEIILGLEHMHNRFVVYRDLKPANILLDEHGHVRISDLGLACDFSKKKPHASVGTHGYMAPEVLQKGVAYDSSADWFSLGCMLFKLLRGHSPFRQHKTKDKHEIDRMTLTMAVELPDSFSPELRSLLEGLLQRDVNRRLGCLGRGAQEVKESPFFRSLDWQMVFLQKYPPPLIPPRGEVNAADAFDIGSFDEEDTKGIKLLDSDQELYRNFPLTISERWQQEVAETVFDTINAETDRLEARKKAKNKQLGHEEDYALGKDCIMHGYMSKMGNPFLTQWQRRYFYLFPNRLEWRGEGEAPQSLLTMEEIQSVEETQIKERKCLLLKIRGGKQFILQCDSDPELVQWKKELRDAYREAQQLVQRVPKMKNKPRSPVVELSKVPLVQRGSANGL
In words: ADPGlo GRK2 Inhibition Assay (Example 8). It is filed as biochemical. The note with it: ADPGlo GRK2 enzyme assay; read-out: A: Enzymatic GRK2: IC50 (nM) (Example 8). In short, it runs like this: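 GRK2 (15 nM 2× enzyme solution) was preincubated 15 min with compound, then reacted 180 min at room temperature with 2× mix of 20 μM ATP plus GRKtide in HEPES pH 7.5, MgCl2, Tween-20, DTT. ADP was detected by ADP-Glo luminescence. Percent inhibition was normalised to enzyme and no-enzyme controls, with dose-response curves from threefold dilutions starting at 100 μM.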

Assay [2] concerns PAXF1657 control empty vector cell line. In words: 7-day proliferation assay, PAXF1657 control empty vector cell line (Example 9). It counts as cell-based. As to conditions: 168 h; Cell Line: PAXF1657 empty vector (EV) cell line; 7-day; read-out: C: 7-day proliferation assay: IC50 GeoMean. The method in brief: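 PAXF1657 isogenic lines (GRK2-overexpressing vs empty vector; CRISPR GRK2 knockout vs non-targeting control clones) seeded 500 cells/well in RPMI1640/10% FBS and treated next day with 10-point dilutions, 30 μM-0.0002 μM final, 0.3% DMSO. Media with compound refreshed after 3 days; viability read by CellTiter-Glo luminescence at day 7.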

In the case of `Cn1c(CNc2cccc(C(=O)NCc3cnn(CCF)c3)c2)nnc1-c1ccncn1`, the IC50 in assay [1] was 82.9 nM; in assay [2], above 5600 nM.
`Cn1c(CNc2cccc(C(=O)NCc3ccc(C(F)F)cc3)c2)nnc1-c1ccncn1`: the values for the IC50 in assay [1] and in assay [2] were 64.2 nM and above 13100 nM, respectively.
The corresponding values for `COc1cccc(CNC(=O)c2cccc(NCc3nnc(-c4ccncn4)n3C)c2)c1C` are 12.6 nM and above 12600 nM.
`Cn1c(CNc2cccc(C(=O)NCc3cnn4c3CCCC4)c2)nnc1-c1ccncn1`: the IC50 was 71.6 nM in assay [1] and above 24800 nM in assay [2].
The corresponding values for `Cn1c(CNc2cccc(C(=O)NCc3ccc(F)c(F)c3)c2)nnc1-c1ccncn1` are 63.7 nM and 9330 nM.
Consider `CCOc1cccc(CNC(=O)c2cccc(NCc3nnc(-c4ccncn4)n3C)c2)c1`, for which the IC50 in assay [1] is 73.6 nM; in assay [2] it was above 30000 nM.
As to `CCOc1ccc(CNC(=O)c2cccc(NCc3nnc(-c4ccncn4)n3C)c2)cc1`, the results for the IC50 in assay [1] and in assay [2] were 35.3 nM and 1200 nM, respectively.
For `Cn1c(CNc2cccc(C(=O)NCc3ccc(C(F)F)nc3)c2)nnc1-c1ccncn1`, in that order: 44.6 nM and above 4160 nM.
For `CC1Oc2ccccc2C1NC(=O)c1cccc(NCc2nnc(-c3ccncn3)n2C)c1` (stereo not shown), in that order: 7.43 nM and 1790 nM.
Turning to `COc1cccc(C)c1CNC(=O)c1cccc(NCc2nnc(-c3ccncn3)n2C)c1`, the IC50 in assay [1] worked out at 8.2 nM; in assay [2] it was 246 nM.
Regarding `COc1ccc(CNC(=O)c2cccc(NCc3nnc(-c4ccncn4)n3C)c2)cc1F`, the IC50 worked out at 30.1 nM in assay [1] and 6650 nM in assay [2].
As for `Cn1c(CNc2cccc(C(=O)NC3COc4ccccc4C3)c2)nnc1-c1ccncn1` (stereo not shown), the values for the IC50 in assay [1] and in assay [2] were 68.4 nM and above 12600 nM, respectively.
For `Cc1ccc2c(c1)C(NC(=O)c1cccc(NCc3nnc(-c4ccncn4)n3C)c1)CO2` (stereo not shown), in that order: 18.8 nM and 332 nM.
`Cn1c(CNc2cccc(C(=O)NCC3COc4ccccc43)c2)nnc1-c1ccncn1` (stereo not shown): the IC50 in assay [1] was 54.7 nM; in assay [2], above 5210 nM.
Consider `Cn1c(CNc2cccc(C(=O)NC(CCO)c3ccccc3)c2)nnc1-c1ccncn1` (stereo not shown), for which the values for the IC50 in assay [1] and in assay [2] were 26.4 nM and 1090 nM, respectively.
Consider `Cc1ccc(C(C)NC(=O)c2cccc(NCc3nnc(-c4ccncn4)n3C)c2)nc1` (stereo not shown), for which the IC50 was 74 nM in assay [1] and above 5020 nM in assay [2].
The corresponding values for `Cc1cncc(C(C)NC(=O)c2cccc(NCc3nnc(-c4ccncn4)n3C)c2)c1` (stereo not shown) are 16.2 nM and 784 nM.
For `CC(C)C(NC(=O)c1cccc(NCc2nnc(-c3ccncn3)n2C)c1)c1ccccn1` (stereo not shown), in that order: 52.8 nM and 1900 nM.
The corresponding values for `Cn1ccnc1C(NC(=O)c1cccc(NCc2nnc(-c3ccncn3)n2C)c1)C1CC1` (stereo not shown) are 52.9 nM and 3750 nM.
Turning to `COc1ccc(C(C)NC(=O)c2cccc(NCc3nnc(-c4ccncn4)n3C)c2)cn1` (stereo not shown), the IC50 in assay [1] is 22.6 nM; in assay [2] it was 1710 nM.
For `Cn1c(CNc2cccc(C(=O)NC(c3ccccn3)C3CC3)c2)nnc1-c1ccncn1` (stereo not shown), in that order: 68.9 nM and 2630 nM.
The corresponding values for `Cn1c(CNc2cccc(C(=O)NCc3ccccc3N3CCNCC3)c2)nnc1-c1ccncn1` are 65.8 nM and 7890 nM.
Consider `Cn1c(CNc2cccc(C(=O)NC3CCc4c(O)cccc43)c2)nnc1-c1ccncn1` (stereo not shown), for which the IC50 in assay [1] is 47.2 nM; in assay [2], 8840 nM.
For `CN(C)S(=O)(=O)c1cccc(F)c1CNC(=O)c1cccc(NCc2nnc(-c3ccncn3)n2C)c1`, in that order: 5.78 nM and 263 nM.
The corresponding values for `Cn1c(CNc2cccc(C(=O)N[C@@H](C#N)c3cc(F)ccc3F)c2)nnc1-c1ccncn1` are 15.7 nM and 244 nM.
The corresponding values for `Cn1c(CNc2cccc(C(=O)N[C@H](C#N)c3cc(F)ccc3F)c2)nnc1-c1ccncn1` are 17.7 nM and 808 nM.
As to `Cc1ccccc1[C@H](C#N)NC(=O)c1cccc(NCc2nnc(-c3ccncn3)n2C)c1`, the IC50 stood at 4.63 nM in assay [1] and 30.4 nM in assay [2].
The corresponding values for `Cc1ccccc1[C@@H](C#N)NC(=O)c1cccc(NCc2nnc(-c3ccncn3)n2C)c1` are 4.97 nM and 35.5 nM.
For `Cn1c(CNc2cccc(C(=O)N[C@H](C#N)c3cccnc3)c2)nnc1-c1ccncn1`, in that order: 20.3 nM and 3430 nM.
Regarding `CCCCCOc1ccc2c(c1)[C@@H](NC(=O)c1cccc(NCc3nnc(-c4ccncn4)n3C)c1)CCO2`, the IC50 in assay [1] turned out to be 12.6 nM; in assay [2], 2130 nM.
`CCCCCOc1ccc2c(c1)[C@@H](NC(=O)c1cccc(NCc3nnc(-c4ccncn4)n3C)c1)CO2`: the IC50 is 8.3 nM in assay [1] and 236 nM in assay [2].
The corresponding values for `CCCn1c(CNc2cccc(C(=O)N[C@@H](C)c3cccc(OC)c3)c2)nnc1-c1ccncn1` are 14.1 nM and above 30000 nM.
The corresponding values for `CCCn1c(CNc2cccc(C(=O)N[C@H](C)c3cccc(OC)c3)c2)nnc1-c1ccncn1` are 40.1 nM and above 219 nM.
The corresponding values for `COc1cccc([C@H](C)NC(=O)c2cccc(NCc3nnc4n3CCOc3cnccc3-4)c2)c1` are 6.52 nM and 10100 nM.
Turning to `COc1cccc([C@@H](C)NC(=O)c2cccc(NCc3nnc4n3CCOc3cnccc3-4)c2)c1`, the IC50 is 15.9 nM in assay [1] and above 3650 nM in assay [2].
Regarding `COc1cccc([C@H](C)NC(=O)c2cccc(NCc3nnc(-c4ccncn4)n3CCO)c2)c1`, the figures for the IC50 in assay [1] and in assay [2] were 2.41 nM and 30.7 nM, respectively.
Turning to `COc1cccc([C@@H](C)NC(=O)c2cccc(NCc3nnc(-c4ccncn4)n3CCO)c2)c1`, the figures for the IC50 in assay [1] and in assay [2] were 4.91 nM and 1230 nM, respectively.
In the case of `COc1cccc([C@H](C)NC(=O)c2cccc(NCc3nnc(-c4ccncc4)n3CCO)c2)c1`, the IC50 was 2.99 nM in assay [1] and above 30000 nM in assay [2].
The corresponding values for `COc1cccc([C@@H](C)NC(=O)c2cccc(NCc3nnc(-c4ccncc4)n3CCO)c2)c1` are 99.4 nM and above 30000 nM.
As to `C[C@H](NC(=O)c1cccc(NCc2nnc(-c3ccncc3)n2CCO)c1)c1ncccc1Cl`, the IC50 came to 28.3 nM in assay [1] and 80.9 nM in assay [2].
The corresponding values for `COc1cccc([C@H](C)NC(=O)c2cccc(NCc3nnc(-c4ccncc4F)n3C)c2)c1` are 11.6 nM and above 30000 nM.
`COc1cccc([C@@H](C)NC(=O)c2cccc(NCc3nnc(-c4ccncc4F)n3C)c2)c1`: the IC50 in assay [1] was 181 nM; in assay [2], above 30000 nM.
The corresponding values for `C[C@H](NC(=O)c1cccc(NCc2nnc(-c3ccncc3F)n2C)c1)c1ncccc1Cl` are 52.8 nM and 1030 nM.
Consider `C[C@@H](NC(=O)c1cccc(NCc2nnc(-c3ccncc3F)n2C)c1)c1ncccc1Cl`, for which the IC50 amounted to 54.7 nM in assay [1] and 135 nM in assay [2].
The corresponding values for `O=C(NCc1cnc2ccccn12)c1cccc(NCc2nnc(-c3ccncc3)n2CCO)c1` are 5.77 nM and above 30000 nM.
With `Cc1cccc2ncc(CNC(=O)c3cccc(NCc4nnc(-c5ccncc5)n4CCO)c3)n12`, the IC50 in assay [1] was 5.86 nM; in assay [2], above 30000 nM.
Take `CCc1cnccc1CNC(=O)c1cccc(NCc2nnc(-c3ccncc3)n2CCO)c1`: the results for the IC50 in assay [1] and in assay [2] were 14.3 nM and above 30000 nM, respectively.
On to `Cn1c(CNc2cc(C(=O)N[C@H]3COCc4ccccc43)ccn2)nnc1-c1ccncn1`, for which the IC50 in assay [1] was found to be 71.1 nM; in assay [2], 11000 nM.
With `Cn1c(CNc2cc(C(=O)N[C@H]3COc4cc(F)ccc43)ccn2)nnc1-c1ccncn1`, the IC50 was found to be 118 nM in assay [1] and 1930 nM in assay [2].
For `Cc1ccc(C#N)cc1CNC(=O)c1ccnc(NCc2nnc(-c3ccncn3)n2C)c1`, in that order: 7.07 nM and 1410 nM.
The corresponding values for `COc1ncc(Br)cc1CNC(=O)c1ccnc(NCc2nnc(-c3ccncn3)n2C)c1` are 28.1 nM and above 30000 nM.
The corresponding values for `COc1cccc([C@H](C)NC(=O)c2ccnc(NCc3nnc(-c4ccncn4)n3C)c2)c1` are 125 nM and 8000 nM.
Take `COc1cccc([C@@H](C)NC(=O)c2ccnc(NCc3nnc(-c4ccncn4)n3C)c2)c1`: the IC50 is 9.89 nM in assay [1] and 468 nM in assay [2].

The values above are taken from patent publication US20230009608A1, “GRK2 INHIBITORS AND USES THEREOF” (Cygnal Therapeutics, Inc., priority 2020, published 2023).
